Measured values as given in US12435112B2, “Adenovirus comprising a modified adenovirus hexon protein” (UNIVERSITÄT ULM, priority 2019, dated 2025).

Test system: MSCs
Test: Transduction of MSCs with or without enhancing molecules
Format: cell-based, human
Details: enhancer pre-incubated with adenovirus
Description: Transduction of MSCs by HAdV5 or HAdV5-Mut3, with or without Enhancing Molecules
MSCs were seeded in 1 mL PL-containing BioWhittaker® Alpha minimum essential medium (Lonza) in 24-well plates. The next day, the indicated viral vector particles were pre-incubated with or without enhancing molecules for 30 minutes at 37° C. in a total volume of 300 μL in PL-free medium. As enhancing molecules, Factor X (250-2000 ng/mL), Spermidine (1-625 ng/μL), Spermine (1-1000 ng/μL), Polybrene (0.08-81 μg/μL), Poly-L-Lysine (1-25% v/v) and Lactoferrin (1-1000 μg/mL) were used. Subsequently, MSCs were washed and 500 μL PL-free medium was provided. Cells were transduced by adding 300 μL of the pre-incubated viral particles (resulting in the indicated pMOI) and incubated for 2 hours at 37° C. Afterwards, cells were washed, and 1 mL of PL-containing medium was added. 72 hours after transduction, MSCs were detached and eGFP expression was analyzed by flow cytometry.
Amount of Enhancers Used for Pre-Incubation of HAdV5:
Transduction of MSCs by HAdV5, HAdV5-Mut3, HAdV5-ΔCAR-Mut3, HAdV5-ΔHVR1 or HAdV5-Mut2
Transduction of MSCs with a pMOI of 1000 was performed as described in section “Transduction of MSCs by HAdV5 or HAdV5-Mut3, with or without enhancing molecules”, except that MSCs were detached and eGFP expression was analyzed by flow cytometry 24 hours after transduction. No enhancing molecules were used.

Row | SMILES | enhanced transduction of MSCs with adenoviruses by transduction enhancer
1 | NCCCCNCCCN [Spermidine] | most pronounced
2 | NCCCNCCCCNCCCN [Spermine] | most pronounced
